Among the data in article PMC9405123, “Design, Synthesis and Mechanistic Studies of Novel Isatin-Pyrazole Hydrazone Conjugates as Selective and Potent Bacterial MetAP Inhibitors” (Antibiotics, 2022) are inhibition, Ki and melting point values, retold here.

One data set deals with E. coli. Put plainly: Growth inhibition screening (broth dilution). The data set is classed as cell-based, Escherichia coli. The note with it: Escherichia coli. The protocol:
(§1) In vitro screening of the compounds (PS1–14) was performed to assess the antibacterial activity against three Gram-positive (Staphylococcus aureus, Enterococcus faecalis and Bacillus subtilis,) and three Gram-negative (Pseudomonas aeruginosa, Klebsiella pneumonia and Escherichia coli) bacterial strains using the standard NCCLS broth dilution assay. The study’s standard drugs were ciprofloxacin (CIP) and ampicillin (AMP). Compounds were dissolved in a polar solvent (DMSO) and distributed into a 96-well plate in 200 µL of nutrient broth medium, with a final concentration of the compounds […] in each well. The bacterial cells (about 2.5 × 10^5 cells/mL) were inoculated into each well and incubated at 37 °C overnight. After incubation, the growth was measured by turbidity of the culture at 590 nm by spectrophotometer.
On the technique in general: Broth dilution looks for growth in wells or tubes with falling amounts of substance.

For the next data set, the target named is T1, MtMetAP1c (Mycobacterium tuberculosis, UniProt P9WK19).
T1 construct: made in house
T1 sequence (P9WK19 whole entry): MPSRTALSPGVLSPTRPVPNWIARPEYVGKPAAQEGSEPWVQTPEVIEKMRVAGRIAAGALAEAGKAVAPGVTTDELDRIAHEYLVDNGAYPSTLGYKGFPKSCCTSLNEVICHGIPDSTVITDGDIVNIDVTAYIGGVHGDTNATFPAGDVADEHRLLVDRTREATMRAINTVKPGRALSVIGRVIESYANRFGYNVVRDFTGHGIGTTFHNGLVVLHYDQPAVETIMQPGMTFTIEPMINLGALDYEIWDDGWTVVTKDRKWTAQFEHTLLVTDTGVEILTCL
Put plainly: MetAP enzyme inhibition, Morrison Ki (Met-AMC fluorescence). The data set is classed as biochemical, M. tuberculosis. The note with it: Morrison Ki method. On the procedure: MetAP appears to serve a vital role in the co- or post-translational modification of proteins, making it essential for bacterial cell metabolism and survival. In this study, all enzymes, which were used for this study, including MtMetAP1c (M. tuberculosis), EfMetAP1a (E. faecalis), SpMetAP1a (S. pneumoniae) and HsMetAP1b (H. sapiens) enzymes, were expressed and purified in our lab as previously reported. All compounds prepared 10 mM stocks in DMSO and were used for enzyme inhibition studies. The concentration of each enzyme is adjusted such that they have similar reaction rates (HsMetAp1b, 1 µM; SpMetAP1a, 5 µM; EfMetAP1a, 1 µM; MtMetAP1c, 1 µM;) as reported earlier. All assays were performed in […] reaction containing 50 mM HEPES (pH 7.5 for SpMetAP1a and HsMetAP1b; 8.0 for EfMetAP1a, MtMetAP1c, […]), 150 mM NaCl, and CoCl2 (three molar equivalents of corresponding enzymes). The reaction was started by adding 50 μM L-Methionine 7-amido-4-methyl coumarin (Met-AMC) and continuously monitoring the fluorescence of released 7-amino-4-methyl coumarin (AMC) (380 nm excitation and 460 nm emission) in a microplate multimode reader (TECAN, Austria). The maximum percentage of inhibition against enzymes is calculated at […] compound concentration. […] The Ki values were determined according to the Morrison method using three different concentrations of substrates and ten different concentrations of the inhibitor. All experiments were performed in triplicate. GraphPad Prism version 8.0.0 (San Diego, CA, USA) was used to determine all the kinetic parameters.

Another data set deals with EfMetAP1a (Enterococcus faecalis, UniProt Q832M5). Described as above. The data set is classed as biochemical. The following applies: Morrison Ki method.
EfMetAP1a, sequence (Q832M5 entry or part of it): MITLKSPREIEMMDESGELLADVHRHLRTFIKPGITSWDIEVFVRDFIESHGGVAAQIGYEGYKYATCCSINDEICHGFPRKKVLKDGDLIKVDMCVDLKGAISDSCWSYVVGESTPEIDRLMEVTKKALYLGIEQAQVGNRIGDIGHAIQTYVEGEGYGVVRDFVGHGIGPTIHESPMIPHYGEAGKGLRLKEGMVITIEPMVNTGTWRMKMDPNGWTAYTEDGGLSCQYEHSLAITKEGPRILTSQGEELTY
Another data set concerns E. faecalis. Briefly: Growth inhibition screening (broth dilution). The note with it: Enterococcus faecalis. The data set is classed as cell-based, Enterococcus faecalis. On the procedure: as §1
The target of another data set is SpMetAP1a (Streptococcus pneumoniae, UniProt Q8DPV1). Briefly: MetAP enzyme inhibition, Morrison Ki (Met-AMC fluorescence). The data set is classed as biochemical. The note with it: Morrison Ki method.
SpMetAP1a, sequence (Q8DPV1 entry or part of it): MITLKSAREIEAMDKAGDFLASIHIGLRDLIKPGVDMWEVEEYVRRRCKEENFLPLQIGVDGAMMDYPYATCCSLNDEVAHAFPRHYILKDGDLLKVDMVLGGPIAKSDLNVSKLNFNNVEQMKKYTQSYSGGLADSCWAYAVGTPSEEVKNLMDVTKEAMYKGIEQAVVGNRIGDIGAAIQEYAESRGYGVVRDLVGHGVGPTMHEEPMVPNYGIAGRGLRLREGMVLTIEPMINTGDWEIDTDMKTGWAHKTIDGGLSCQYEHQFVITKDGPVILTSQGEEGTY
Another data set deals with S. aureus. Put plainly: Growth inhibition screening (broth dilution). The following applies: Staphylococcus aureus. The data set is classed as cell-based, Staphylococcus aureus. On the procedure:
as §1

A further data set concerns K. pneumoniae. Briefly: Growth inhibition screening (broth dilution). The data set is classed as cell-based, Klebsiella pneumonia. The following applies: Klebsiella pneumoniae. On the procedure: as §1
A further data set relates to P. aeruginosa. Briefly: Growth inhibition screening (broth dilution). The data set is classed as cell-based, Pseudomonas aeruginosa. The note with it: Pseudomonas aeruginosa. The protocol: as §1
For a further data set, the system named is B. subtilis. Put plainly: Growth inhibition screening (broth dilution). The data set is classed as cell-based, Bacillus subtilis. The note with it: Bacillus subtilis. On the procedure: as §1

Broadly, the inhibition is the relative decrease from the control value, in per cent. The low end stands for a weak effect, the high end for a strong effect. A word on the Ki: it is the dissociation constant of the complex between target and ligand, obtained from inhibition or displacement. Higher therefore signals a looser hold on the target. A word on the melting point: it is the temperature of the solid-liquid transition. On to `O=C1Nc2ccccc2/C1=N\NC(=O)c1cc(-c2cccc(Br)c2)n[nH]1` [PS1, (E)-3-(3-Bromophenyl)-N′-(2-Oxoindolin-3-YLIDENE)-1H-Pyrazole-5-Carbohydrazide], for which the melting point was in the range of 218 to 221 °C. The same compound yielded an inhibition at 250 µg/mL in the data set on E. coli of 40%. On MtMetAP1c, this compound displayed a Ki of 2300 ± 270 nM. The same compound displayed an inhibition constant (Ki) at EfMetAP1a of 2650 ± 340 nM. At 250 µg/mL the inhibition with E. faecalis was 12%. At SpMetAP1a, the affinity, expressed as Ki, was 4480 ± 120 nM. Besides, the inhibition at 250 µg/mL with S. aureus came to 73%. In the data set with K. pneumoniae, the inhibition at 250 µg/mL came out at 74%. The compound further showed an inhibition at 250 µg/mL with P. aeruginosa of 4%. Besides, the inhibition at 250 µg/mL with B. subtilis amounted to 76%.
Compound `Cc1ccc2c(c1)/C(=N\NC(=O)c1cc(-c3cccc(Br)c3)n[nH]1)C(=O)N2` [PS2, (E)-3-(3-Bromophenyl)-N′-(5-Methyl-2-Oxoindolin-3-Ylidene)-1H-Pyrazole-5-Carbohydrazide] registered a melting point of 209 to 213 °C. This compound also showed an inhibition at 250 µg/mL in the data set on E. coli of 86%. Besides, the inhibitory constant (Ki) at MtMetAP1c is 4370 ± 140 nM. For the same compound, testing at 250 µg/mL in the data set on E. faecalis gave an inhibition of 10%. On SpMetAP1a, this compound registered an inhibition constant (Ki) of 2980 ± 180 nM. The compound also gave an inhibition at 250 µg/mL in the data set with S. aureus of 66%. This compound also registered an inhibition at 250 µg/mL with K. pneumoniae of 90%. Besides, the inhibition at 250 µg/mL with P. aeruginosa was 87%. Further, 250 µg/mL produced 80% inhibition with B. subtilis.
For `Cc1cc(C)c2c(c1)/C(=N\NC(=O)c1cc(-c3cccc(Br)c3)n[nH]1)C(=O)N2` [PS4, (E)-3-(3-Bromophenyl)-N′-(5,7-Dimethyl-2-Oxoindolin-3-Ylidene)-1H-Pyrazole-5-Carbohydrazide], the melting point was in the range of 257 to 260 °C. The compound also displayed an inhibition at 250 µg/mL in the data set with E. coli of 80%. The compound also showed an inhibition at 250 µg/mL in the data set with E. faecalis of 47%. In the data set with S. aureus, this compound gave an inhibition at 250 µg/mL of 81%. The compound also registered an inhibition at 250 µg/mL with K. pneumoniae of 97%. Moreover, the inhibition at 250 µg/mL in the data set with P. aeruginosa stood at 90%. In the data set on B. subtilis, this compound yielded an inhibition at 250 µg/mL of 44%.
In turn, `O=C1Nc2ccc(Br)cc2/C1=N\NC(=O)c1cc(-c2cccc(Br)c2)n[nH]1` [PS5, (E)-N′-(5-Bromo-2-Oxoindolin-3-Ylidene)-3-(3-Bromophenyl)-1H-Pyrazole-5-Carbohydrazide] gave a melting point of 230 to 233 °C. In addition, testing at 250 µg/mL in the data set with E. coli gave an inhibition of 9%. Further, the inhibition constant Ki on MtMetAP1c is 3140 ± 410 nM. In addition, in the data set with E. faecalis, at 250 µg/mL the inhibition was 86%. Also, in the data set on S. aureus, the inhibition at 250 µg/mL came out at 100%. Further, the inhibition at 250 µg/mL with K. pneumoniae was found to be 100%. In the data set with P. aeruginosa, the inhibition at 250 µg/mL amounted to 100%. In addition, the inhibition at 250 µg/mL with B. subtilis is 34%.
Consider `O=C1Nc2cc(F)ccc2/C1=N\NC(=O)c1cc(-c2cccc(Br)c2)n[nH]1` [PS7, (E)-3-(3-Bromophenyl)-N′-(6-Fluoro-2-Oxoindolin-3-Ylidene)-1H-Pyrazole-5-Carbohydrazide], for which the melting point lay in the range of 228 to 230 °C. This compound also displayed an inhibition at 250 µg/mL in the data set on E. coli of 3%. The compound further had an inhibition at 250 µg/mL in the data set with E. faecalis of 99%. In addition, in the data set on S. aureus, 250 µg/mL produced 10% inhibition. This compound had an inhibition at 250 µg/mL with K. pneumoniae of 49%. In addition, in the data set with P. aeruginosa, testing at 250 µg/mL gave an inhibition of 65%. This compound had an inhibition at 250 µg/mL with B. subtilis of 100%.
In turn, `O=C1Nc2ccc(Cl)cc2/C1=N\NC(=O)c1cc(-c2cccc(Br)c2)n[nH]1` [PS8, (E)-3-(3-Bromophenyl)-N′-(5-Chloro-2-Oxoindolin-3-Ylidene)-1H-Pyrazole-5-Carbohydrazide] registered a melting point of 217 to 220 °C. In the data set with E. coli, this compound gave an inhibition at 250 µg/mL of 84%. The compound also came in with an inhibition at 250 µg/mL in the data set on E. faecalis of 13%. Further, the inhibition at 250 µg/mL in the data set on S. aureus was determined as 3%. In addition, the inhibition at 250 µg/mL with K. pneumoniae amounted to 52%. This compound returned an inhibition at 250 µg/mL with P. aeruginosa of 100%. The compound further registered an inhibition at 250 µg/mL in the data set on B. subtilis of 93%.
`O=C1Nc2c(cccc2[N+](=O)[O-])/C1=N\NC(=O)c1cc(-c2cccc(Br)c2)n[nH]1` [PS10, (E)-3-(3-Bromophenyl)-N′-(7-Nitro-2-Oxoindolin-3-Ylidene)-1H-Pyrazole-5-Carbohydrazide] gave a melting point of 215 to 218 °C. In the data set with E. coli, at 250 µg/mL the inhibition was 88%. In the data set on E. faecalis, this compound had an inhibition at 250 µg/mL of 85%. Also, the inhibition at 250 µg/mL in the data set on S. aureus was 82%. The inhibition at 250 µg/mL in the data set on K. pneumoniae is 52%. This compound came in with an inhibition at 250 µg/mL with P. aeruginosa of 100%. Moreover, in the data set with B. subtilis, testing at 250 µg/mL gave an inhibition of 56%.
In turn, `COc1ccc2c(c1)NC(=O)/C2=N/NC(=O)c1cc(-c2cccc(Br)c2)n[nH]1` [PS12, (E)-3-(3-Bromophenyl)-N′-(6-Methoxy-2-Oxoindolin-3-Ylidene)-1H-Pyrazole-5-Carbohydrazide] yielded a melting point of 228 to 230 °C. In the data set with E. coli, this compound gave an inhibition at 250 µg/mL of 74%. This compound yielded an inhibition constant (Ki) on MtMetAP1c of 610 ± 30 nM. At EfMetAP1a, this compound registered an inhibitory constant (Ki) of 3250 ± 140 nM. Besides, the inhibition at 250 µg/mL with E. faecalis came out at 65%. Testing at 250 µg/mL in the data set with S. aureus gave an inhibition of 100%. In addition, the inhibition at 250 µg/mL with K. pneumoniae turned out to be 6%. The compound further gave an inhibition at 250 µg/mL in the data set on P. aeruginosa of 23%. 250 µg/mL produced 85% inhibition with B. subtilis.
Regarding `O=C1Nc2c(Cl)cccc2/C1=N\NC(=O)c1cc(-c2cccc(Br)c2)n[nH]1` [PS13, (E)-3-(3-Bromophenyl)-N′-(7-Chloro-2-Oxoindolin-3-Ylidene)-1H-Pyrazole-5-Carbohydrazide], the melting point was 205 to 208 °C. This compound also returned an inhibition at 250 µg/mL in the data set with E. coli of 20%. Moreover, in the data set with E. faecalis, testing at 250 µg/mL gave an inhibition of 36%. Further, testing at 250 µg/mL with S. aureus gave an inhibition of 92%. The compound also came in with an inhibition at 250 µg/mL in the data set on K. pneumoniae of 74%. The same compound had an inhibition at 250 µg/mL with P. aeruginosa of 95%. Also, at 250 µg/mL the inhibition in the data set with B. subtilis was 33%.
Compound `O=C1Nc2cc([N+](=O)[O-])ccc2/C1=N\NC(=O)c1cc(-c2cccc(Br)c2)n[nH]1` [PS14, (E)-3-(3-Bromophenyl)-N′-(6-Nitro-2-Oxoindolin-3-Ylidene)-1H-Pyrazole-5-Carbohydrazide] had a melting point of 225 to 228 °C. Further, the inhibition at 250 µg/mL with E. coli was determined as 34%. The compound also registered an inhibitory constant (Ki) at MtMetAP1c of 1270 nM. In the data set with E. faecalis, the inhibition at 250 µg/mL was 9%. The compound also displayed a Ki on SpMetAP1a of 500 ± 30 nM. In the data set on S. aureus, this compound displayed an inhibition at 250 µg/mL of 33%. The compound further registered an inhibition at 250 µg/mL in the data set with K. pneumoniae of 17%. The compound further had an inhibition at 250 µg/mL in the data set on P. aeruginosa of 3%. Moreover, the inhibition at 250 µg/mL in the data set on B. subtilis was 86%.
